# Measured values taken from ChEMBL document CHEMBL2440076, “New triarylpyrazoles as broad-spectrum anticancer agents: design, synthesis, and biological evaluation” (Eur J Med Chem, 2013).
# pIC50: −log10 of the molar value.
# What was measured:
# MCF7 = experiment: Growth inhibition of human MCF7 cells assessed as cell growth at 10 uM after 48 hrs by sulforhodamine B assay; format: functional; conditions: MCF7, 48 h, read-out: Activity
# UO-31 = experiment: Growth inhibition of human UO31 cells assessed as cell growth at 10 uM after 48 hrs by sulforhodamine B assay; format: functional; conditions: UO-31, 48 h, read-out: Activity
# SW-620 [1] = experiment: Growth inhibition of human SW620 cells after 48 hrs by sulforhodamine B assay; format: functional; conditions: SW-620, 48 h
# HCT-15 = experiment: Growth inhibition of human HCT15 cells after 48 hrs by sulforhodamine B assay; format: functional; conditions: HCT-15, 48 h
# [2] = Growth inhibition of human HCC2998 cells after 48 hrs by sulforhodamine B assay; format: functional; conditions: HCC 2998, 48 h
# NCI-H460 = experiment: Growth inhibition of human NCI-H460 cells after 48 hrs by sulforhodamine B assay; format: functional; conditions: NCI-H460, 48 h
# HOP-92 [3] = experiment: Growth inhibition of human HOP92 cells after 48 hrs by sulforhodamine B assay; format: functional, cell-based; conditions: HOP-92, 48 h
# A549 = experiment: Growth inhibition of human A549/ATCC cells after 48 hrs by sulforhodamine B assay; format: functional; conditions: A549, 48 h
# RPMI-8226 = experiment: Growth inhibition of human RPMI8226 cells after 48 hrs by sulforhodamine B assay; format: functional, cell-based; conditions: RPMI-8226, 48 h
# K562 = experiment: Growth inhibition of human K562 cells after 48 hrs by sulforhodamine B assay; format: functional; conditions: K562, 48 h
# ACHN = experiment: Growth inhibition of human ACHN cells assessed as cell growth at 10 uM after 48 hrs by sulforhodamine B assay; format: functional; conditions: read-out: Activity
# SK-OV-3 = experiment: Growth inhibition of human SKOV3 cells assessed as cell growth at 10 uM after 48 hrs by sulforhodamine B assay; format: functional; conditions: SK-OV-3, 48 h, read-out: Activity
# [4] = Growth inhibition of human NCI-ADR-RES cells assessed as cell growth at 10 uM after 48 hrs by sulforhodamine B assay; format: functional; conditions: read-out: Activity
# OVCAR-4 = experiment: Growth inhibition of human OVCAR4 cells assessed as cell growth at 10 uM after 48 hrs by sulforhodamine B assay; format: functional; conditions: OVCAR-4, 48 h, read-out: Activity
# OVCAR-3 [5] = experiment: Growth inhibition of human OVCAR3 cells assessed as cell growth at 10 uM after 48 hrs by sulforhodamine B assay; format: functional; conditions: OVCAR-3, 48 h, read-out: Activity
# UACC-62 = experiment: Growth inhibition of human UACC62 cells assessed as cell growth at 10 uM after 48 hrs by sulforhodamine B assay; format: functional; conditions: UACC-62, 48 h, read-out: Activity
# IGROV-1 = experiment: Growth inhibition of human IGROV1 cells assessed as cell growth at 10 uM after 48 hrs by sulforhodamine B assay; format: functional; conditions: IGROV-1, 48 h, read-out: Activity
# SK-MEL-28 = experiment: Growth inhibition of human SK-MEL-28 cells assessed as cell growth at 10 uM after 48 hrs by sulforhodamine B assay; format: functional; conditions: SK-MEL-28, 48 h, read-out: Activity
# SNB-19 = experiment: Growth inhibition of human SNB19 cells assessed as cell growth at 10 uM after 48 hrs by sulforhodamine B assay; format: functional; conditions: SNB-19, 48 h, read-out: Activity
# SF-539 = experiment: Growth inhibition of human SF539 cells assessed as cell growth at 10 uM after 48 hrs by sulforhodamine B assay; format: functional; conditions: SF-539, 48 h, read-out: Activity
# SW-620 [6] = experiment: Growth inhibition of human SW620 cells assessed as cell growth at 10 uM after 48 hrs by sulforhodamine B assay; format: functional; conditions: SW-620, 48 h, read-out: Activity
# NCI-H522 = experiment: Growth inhibition of human NCI-H522 cells assessed as cell growth at 10 uM after 48 hrs by sulforhodamine B assay; format: functional; conditions: NCI-H522, 48 h, read-out: Activity
# HOP-92 [7] = experiment: Growth inhibition of human HOP92 cells assessed as cell growth at 10 uM after 48 hrs by sulforhodamine B assay; format: functional; conditions: HOP-92, 48 h, read-out: Activity
# T47D = experiment: Growth inhibition of human T47D cells after 48 hrs by sulforhodamine B assay; format: functional
# [8] = Growth inhibition of human Hs 578T cells after 48 hrs by sulforhodamine B assay; format: functional
# MDA-MB-231 = experiment: Growth inhibition of human MDA-MB-231 cells after 48 hrs by sulforhodamine B assay; format: functional; conditions: MDA-MB-231, 48 h
# TK-10 = experiment: Growth inhibition of human TK10 cells after 48 hrs by sulforhodamine B assay; format: functional; conditions: TK-10, 48 h
# CAKI-1 = experiment: Growth inhibition of human CAKI-1 cells after 48 hrs by sulforhodamine B assay; format: functional; conditions: CAKI-1, 48 h
# A498 = experiment: Growth inhibition of human A498 cells after 48 hrs by sulforhodamine B assay; format: functional, cell-based; conditions: A498, 48 h
# [9] = Growth inhibition of human NCI-ADR-RES cells after 48 hrs by sulforhodamine B assay; format: functional
# OVCAR-3 [10] = experiment: Growth inhibition of human OVCAR3 cells after 48 hrs by sulforhodamine B assay; format: functional, cell-based; conditions: OVCAR-3, 48 h
# Malme-3M = experiment: Growth inhibition of human MALME-3M cells after 48 hrs by sulforhodamine B assay; format: functional
# SNB-75 = experiment: Growth inhibition of human SNB75 cells after 48 hrs by sulforhodamine B assay; format: functional; conditions: SNB-75, 48 h
# HL-60(TB) = experiment: Growth inhibition of human HL-60(TB) cells assessed as cell growth at 10 uM after 48 hrs by sulforhodamine B assay; format: functional; conditions: HL-60, 48 h, read-out: Activity
# [11] = read-out: LC50 (the source's name)
structure (smiles),measurement,setting,value
COc1cc(-c2nn(-c3cccc(NC(=O)c4cccc(C(F)(F)F)c4)c3)cc2-c2ccncc2)ccc1Cl,growth at 10 µM,MCF7,3.58%
same,growth at 10 µM,UO-31,25.1%
same,GI50,SW-620 [1],2.31 µM
same,TGI,SW-620 [1],> 50 µM
same,CC50,SW-620 [1]; [11],> 50 µM
same,GI50,HCT-15,1.55 µM
same,LC50,HCT-15,> 50 µM
same,TGI,HCT-15,> 50 µM
same,GI50,[2],2.24 µM
same,TGI,[2],17.6 µM
same,CC50,[2]; [11],> 50 µM
same,GI50,NCI-H460,1.45 µM
same,LC50,NCI-H460,> 50 µM
same,TGI,NCI-H460,9.27 µM
same,GI50,HOP-92 [3],0.555 µM
same,pIC50,HOP-92 [3],6.25
same,LC50,HOP-92 [3],> 50 µM
same,TGI,HOP-92 [3],3.12 µM
same,GI50,A549,1.87 µM
same,LC50 (concentration killing 50% of starting cells),A549,> 50 µM
same,TGI,A549,> 50 µM
same,GI50,RPMI-8226,1.57 µM
same,pIC50,RPMI-8226,5.80
same,TGI,RPMI-8226,26.6 µM
same,CC50,RPMI-8226; [11],> 50 µM
same,GI50,K562,1.4 µM
same,TGI,K562,> 50 µM
same,CC50,K562; [11],> 50 µM
same,growth at 10 µM,ACHN,31.6%
same,growth at 10 µM,SK-OV-3,7.18%
same,growth at 10 µM,[4],2.75%
same,growth at 10 µM,OVCAR-4,46.5%
same,growth at 10 µM,OVCAR-3 [5],-25.6%
same,growth at 10 µM,UACC-62,27.2%
same,growth at 10 µM,IGROV-1,34%
same,growth at 10 µM,SK-MEL-28,32.5%
same,growth at 10 µM,SNB-19,47.3%
same,growth at 10 µM,SF-539,-48.8%
same,growth at 10 µM,SW-620 [6],36%
same,growth at 10 µM,NCI-H522,-42.3%
same,growth at 10 µM,HOP-92 [7],-5.59%
same,GI50,T47D,2.55 µM
same,TGI,T47D,> 50 µM
same,CC50,T47D; [11],> 50 µM
same,GI50,[8],1.07 µM
same,TGI,[8],> 50 µM
same,CC50,[8]; [11],> 50 µM
same,GI50,MDA-MB-231,1.24 µM
same,LC50,MDA-MB-231,> 50 µM
same,TGI,MDA-MB-231,9.96 µM
same,GI50,TK-10,3.24 µM
same,TGI,TK-10,> 50 µM
same,CC50,TK-10; [11],> 50 µM
same,GI50,CAKI-1,2.01 µM
same,TGI,CAKI-1,> 50 µM
same,CC50,CAKI-1; [11],> 50 µM
same,GI50,A498,0.687 µM
same,pIC50,A498,6.16
same,TGI,A498,2.78 µM
same,CC50,A498; [11],> 50 µM
same,GI50,[9],1.09 µM
same,TGI,[9],3.17 µM
same,CC50,[9]; [11],> 50 µM
same,GI50,OVCAR-3 [10],1.2 µM
same,pIC50,OVCAR-3 [10],5.92
same,TGI,OVCAR-3 [10],2.98 µM
same,CC50,OVCAR-3 [10]; [11],> 50 µM
same,GI50,Malme-3M,1.99 µM
same,LC50 (concentration killing 50% of starting cells),Malme-3M,> 50 µM
same,TGI,Malme-3M,> 50 µM
same,GI50,SNB-75,1.13 µM
same,"LC50 (lethal concentration, 50% net cell kill)",SNB-75,> 50 µM
same,growth at 10 µM,HL-60(TB),1.93%
